Laboratory results: patent US20170189391A1, “Protein kinase C inhibitor for treating triple-negative breast cancer” (Macau University of Science ang Technology, priority 2015, published 2017)

Legend:
BT-549 [1] = test: In vitro cell proliferation assay (SRB assay); type: cell-based; conditions: Homo sapiens; BT-549 (TNBC), 72-hour treatment
Procedure: (§1) The anti-proliferative effects of tested agents on breast cancer cell lines were assessed by sulforhodamine B (SRB) colorimetric assay as previously described. Briefly, cells were seeded in 96-well plates in a volume of […] at densities of 5,000˜40,000 cells per well. After overnight incubation at 37° C. in a humidified incubator with 5% CO2, 100 ml medium containing agents (2 X indicated concentrations) were added. After 72-hour treatment, attached cells were fixed with 50 ml cold 50% (w/v) trichloroacetic acid (TCA) for 1 hour at 4° C. and then stained with 100 ml 0.4% (w/v) SRB. The absorbency at 515 nm was measured using SpectraMax 190 microplate reader (Molecular Devices) after solubilizing the protein-bound dye with 200 ml 10 mM Tris base solution (pH 10.5). The IC50 value was defined as the concentration required for a 50% reduction in cell growth.
(§2) To test in vitro anti-proliferative activity of chelerythrine on breast cancer cells, four TNBC cell lines (MDA-MB-231, BT-549, HCC1937 and MDA-MB-468) and four non-TNBC cell lines (MCF7, ZR-75-1, SK-BR-3 and MDA-MB-453) were treated with a series of chelerythrine concentrations ranging from […] for 72 hours. […] On the contrary, the tested non-TNBC cell lines were relatively resistant to chelerythrine treatment on compared with the TNBC cell lines.

HCC1937 [2] = test: In vitro cell proliferation assay (SRB assay); type: cell-based; conditions: Homo sapiens; HCC1937 (TNBC), 72-hour treatment
Procedure: as §1, §2

MCF7 = test: In vitro cell proliferation assay (SRB assay); type: cell-based; conditions: Homo sapiens; MCF7 (Non-TNBC), 72-hour treatment
Procedure: as §1, §2

MDA-MB-231 [3] = test: In vitro cell proliferation assay (SRB assay); type: cell-based; conditions: Homo sapiens; MDA-MB-231 (TNBC), 72-hour treatment
Procedure: as §1, §2

MDA-MB-468 [4] = test: In vitro cell proliferation assay (SRB assay); type: cell-based; conditions: Homo sapiens; MDA-MB-468 (TNBC), 72-hour treatment
Procedure: as §1, §2

SK-BR-3 = test: In vitro cell proliferation assay (SRB assay); type: cell-based; conditions: Homo sapiens; SK-BR-3 (Non-TNBC), 72-hour treatment
Procedure: as §1, §2

MDA-MB-453 = test: In vitro cell proliferation assay (SRB assay); type: cell-based, human; parameters: inhibitory effect at the highest concentration tested: dose or concentration left out as unconfirmed
Procedure: as §1, §2

ZR-75-1 = test: In vitro cell proliferation assay (SRB assay); type: cell-based, human; parameters: inhibitory effect at the highest concentration tested: dose or concentration left out as unconfirmed
Procedure: as §1, §2

[5] = system: TNBC cell lines (MDA-MB-231, BT-549, HCC1937 and MDA-MB-468); test: In vitro cell proliferation assay (SRB assay), four TNBC lines together; type: cell-based, human; conditions: for cell growth: 5 mM (so in the source) chelerythrine
Procedure: as §1, with “After 72-hour treatment, attached cells were fixed with 50 ml cold 50% (w/v) trichloroacetic acid (TCA) for 1 hour at 4° C. and then stained with 100 ml 0.4% (w/v) SRB.” left out
as §2

[6] = system: non-TNBC cell lines (MCF7, ZR-75-1, SK-BR-3 and MDA-MB-453); test: In vitro cell proliferation assay (SRB assay), four non-TNBC lines together; type: cell-based, human
Procedure: as §1, §2

TNBC cells [7] = test: Colony formation assay; type: cell-based, human; conditions: chelerythrine 5 μM (FIG. 1C)
Procedure: (§3) Four non-triple-negative breast cancer (Non-TNBC) cell lines (MCF7, ZR-75-1, SK-BR-3 and MDA-MB-453) and four triple-negative breast cancer (TNBC) cell lines (MDA-MB-231, BT549, HCC1937 and MDA-MB-468) were used to determine the growth inhibition effect of chelerythrine. […] The cell number at each chelerythrine concentration is represented as a percentage of control (treatment without chelerythrine). Average values are calculated from three independent experiments performed in duplicate (n=3). […] The cell number at each time point is represented as a percentage of control (treatment without chelerythrine). Average values are calculated from three independent experiments performed in duplicate (n=3). […] Representative colony formation assay plates are shown, which are quantified by counting colony number (n=4). Data is shown as mean±SD. […] Cells were then washed with PBS, plated in drug-free medium in 6-well plates at densities of 2,000 cells/well and incubated for 7-10 days in the absence of drug. Colonies were stained with 0.2% (w/v) crystal violet in buffered formalin for 10 minutes. The number of colonies was counted.

non-TNBC cells [8] = test: Colony formation assay; type: cell-based, human; conditions: treatment for 48 hours, chelerythrine 5 μM (FIG. 1C)
Procedure: as §3

BT-549 [9] = test: Flow-cytometric analysis of cell cycle; type: cell-based, human; conditions: BT-549, chelerythrine 5 mM (so in the source), 24 hours
Procedure: (§4) Four Non-TNBC cell lines and four TNBC cell lines as mentioned above were treated with chelerythrine (CHE, 5 μM) for 24 hours. […] Average values are calculated from three independent experiments (n=3). Data is shown as mean±SD.
(§5) Flow cytometric analyses were performed to define the cell cycle distribution […] after treatment with […] chelerythrine. Cells were harvested, washed twice with PBS, resuspended in 0.5 ml PBS (1,000,000˜2,000,000 cells/ml). Then 4 ml 70% ethanol was added and the mixture was kept at −20° C. for 2 hours to fix the cells. Cells were stained for total DNA content with a solution containing […] propidium iodide, 200 μg/ml DNase-free RNase A, and 0.1% triton X-100 in PBS for 30 minutes at room temperature. Cell cycle distribution was analyzed by flow cytometry (BD Bioscience). The percentages of the total cell population in the four different phases (Sub-G0/G1, G0/G1, S, G2/M) of cell cycle was determined using FlowJo software.

HCC1937 [10] = test: Flow-cytometric analysis of cell cycle; type: cell-based, human; conditions: HCC1937, chelerythrine 5 mM (so in the source), 24 hours; 45.1% without treatment
Procedure: as §4, §5

MDA-MB-231 [11] = test: Flow-cytometric analysis of cell cycle; type: cell-based, human; conditions: MDA-MB-231, chelerythrine 5 mM (so in the source), 24 hours
Procedure: as §4, §5

MDA-MB-468 [12] = test: Flow-cytometric analysis of cell cycle; type: cell-based, human; conditions: MDA-MB-468, chelerythrine 5 mM (so in the source), 24 hours
Procedure: as §4, §5

non-TNBC cells [13] = test: Flow-cytometric analysis of cell cycle; type: cell-based, human; conditions: chelerythrine 5 mM (so in the source), 24 hours
Procedure: as §4, §5

all TNBC cell lines = test: Flow-cytometric analysis of cell cycle, all TNBC lines; type: cell-based, human; conditions: upon chelerythrine treatment, 24 hours
Procedure: as §4, §5

HCC1937 [14] = test: Flow-cytometric analysis of apoptosis (Annexin V/PI); type: cell-based, human; conditions: HCC1937, 24 hours, chelerythrine 5 μM (FIG. 3)
Procedure: (§6) Four Non-TNBC cell lines and four TNBC cell lines as mentioned above were treated with chelerythrine (CHE, 5 μM) for 24 hours. […] Reprehensive pictures are shown (400×). […] FIGS. 3C, 3D and 3E show the representative contour diagrams of FITC Annexin V/PI flow cytometry of cells. Fractions of apoptotic cells were quantified. Average values are calculated from three independent experiments (n=3). […] Apoptosis was analyzed by flow cytometry with Annexin V/PI staining. Representative contour diagrams and quantified data are shown. Average values are calculated from three independent experiments (n=3). Data is shown as mean±SD.
(§7) Cellular apoptosis was analyzed with BD Annexin V: Fitc Apoptosis Detection Kit I (BD Bioscience) by flow cytometry. Briefly cells were plated in 6-well plates (100,000˜400,000 cells/well) and treated with chelerythrine. At the indicated time point, cells were harvested, washed twice with cold PBS, and resuspended in 1X Binding Buffer at a concentration of 1,000,000 cells/ml. 100 μl cells were transferred to 1.5 ml conical tube and 5 μl FITC Annexin V and 5 μl propidium iodide were added. The mixture was gently vortexed and incubated at room temperature for 15 minutes in the dark, followed by adding 400 μl 1x Binding Buffer to each tube. Cells were filtered and analyzed by flow cytometry (BD Bioscience) within 1 hour. Total apoptotic cells (FITC Annexin V positive) were counted.

MDA-MB-231 [15] = test: as above; type: cell-based, human; conditions: MDA-MB-231, 24 hours, chelerythrine 5 μM (FIG. 3)
Procedure: as §6, §7

MDA-MB-468 [16] = test: as above; type: cell-based, human; conditions: MDA-MB-468, 24 hours, chelerythrine 5 μM (FIG. 3)
Procedure: as §6, §7

T-549 = test: as above; type: cell-based, human; conditions: T-549 (so in the source), 24 hours, chelerythrine 5 μM (FIG. 3)
Procedure: as §6, §7

four non-TNBC cell lines = test: as above; type: cell-based, human; conditions: same treatment, 24 hours
Procedure: as §6, §7

TNBC cells [17] = test: Assessment of cell morphological changes (Hoechst 33258 staining); type: cell-based, human; conditions: 24 hours
Procedure: as §6
(§8) Cells were plated in 12-well plates (80,000-300,000 cells/well) and then treated with […] chelerythrine for 24 hours. After incubation, cells were collected, washed with PBS and stained with Hoechst 33258 (11.1 mg/ml) in buffered formalin solution containing 5.6% NP-40. Living and apoptotic cells were visualized through DAPI filter of fluorescence inverted microscope (Leica DM2500 Fluorescence Microscope) at ×400 magnification.

non-TNBC cells [18] = test: as above; type: cell-based, human; conditions: 24 hours
Procedure: as §6, §8

TNBC cell lines = test: Western blotting of cleaved PARP (cPARP); type: cell-based, human; conditions: TNBC compared with non-TNBC cell lines, after chelerythrine treatment
Procedure: as §6
Protein samples were prepared by adding RIPA buffer with protease inhibitor cocktail (Roche) to cells and diluted in SDS-PAGE protein sample buffer. Samples were heated for 5 minutes at 95° C. before fractionation on SDS-polyacrylamide gels. The proteins were then transferred to Immobilon P (Millipore) and incubated with primary antibodies overnight at 4° C. The membranes were then washed with TBST and incubated with the appropriate horseradish peroxidase-conjugated secondary antibodies at room temperature. Proteins were visualized with SuperSignal West Dura Extended Duration Substrate or SuperSignal West Pico Chemiluminescent Substrate (Thermo Scientific).

COc1ccc2c(c[n+](C)c3c4cc5c(cc4ccc23)OCO5)c1OC [chelerythrine]
IC50 (BT-549 [1]): 2.6 µM | IC50 (HCC1937 [2]): 3.6 µM | IC50 (MCF7): > 10 µM | IC50 (MDA-MB-231 [3]): 3 µM | IC50 (MDA-MB-468 [4]): 4.2 µM | IC50 (SK-BR-3): > 10 µM | IC50 (MDA-MB-453; Homo sapiens, MDA-MB-453 (Non-TNBC), 72-hour treatment): > 10 µM | inhibitory effect at the highest concentration tested (MDA-MB-453; MDA-MB-453, highest concentration tested, 72 hours): did not show any inhibitory effect | IC50 (ZR-75-1; Homo sapiens, ZR-75-1 (Non-TNBC), 72-hour treatment): > 10 µM | inhibitory effect at the highest concentration tested (ZR-75-1; ZR-75-1, highest concentration tested (so in the source), 72 hours): did not show any inhibitory effect | cell growth ([5]; 24 hour): significant reduction of cell growth | cell growth ([5]; 72 hour): almost died out | IC50 ([5]; Homo sapiens, range over MDA-MB-231, BT-549, HCC1937 and MDA-MB-468, 72 hours, read-out: IC50 values, growth of TNBC cell lines): 2.6 to 4.2 µM | inhibition of cell growth ([6]; 5 mM (so in the source) chelerythrine, each time point, versus TNBC lines): much less inhibition of cell growth | IC50 ([6]; Homo sapiens, 72 hours, read-out: IC50 values of all of the four non-TNBC cell lines): > 10 µM | colony formation ability (TNBC cells [7]; treatment for 3 hours): dramatically decreased | Colony formation (TNBC cells [7]; treatment for 6 hours): almost no cells grew into colonies | colony formation ability (non-TNBC cells [8]): reserved largely of their colony formation ability | cell cycle progression (BT-549 [9]): no obvious changes | percentage of cells in G0/G1 phase (HCC1937 [10]): 52.9% | cell cycle progression (MDA-MB-231 [11]): no obvious changes | cell cycle arrest (MDA-MB-468 [12]): marked cell cycle arrest at G2/M phase | cell cycle distribution (non-TNBC cells [13]): basically unchanged | nuclei with sub-G0/G1 DNA content characteristic of apoptosis (all TNBC cell lines): substantial proportion | mean percentages of apoptotic cells (HCC1937 [14]): 22.2% | mean percentages of apoptotic cells (MDA-MB-231 [15]): 67.8% | mean percentages of apoptotic cells (MDA-MB-468 [16]): 35.3% | mean percentages of apoptotic cells (T-549): 51.0% | apoptosis induction / viability (four non-TNBC cell lines): remained viable | apoptotic morphological changes (TNBC cells [17]): caused chromatin condensation and nuclear fragmentation | apoptotic morphological changes (non-TNBC cells [18]): not in non-TNBC cells | cleaved nuclear poly (ADP-ribose) polymerase (cPARP), marker of apoptosis (TNBC cell lines): detection of the cleaved nuclear poly (ADP-ribose) polymerase
